From ChEMBL document CHEMBL4422610, “HDAC as onco target: Reviewing the synthetic approaches with SAR study of their inhibitors” (Eur J Med Chem, 2018)

Molecular target: Histone deacetylase (Homo sapiens) (UniProt Q13547+O15379+Q9UBN7+Q92769+Q9UQL6+Q8WUI4+Q9BY41+Q96DB2+P56524+Q9UKV0+Q969S8)
Experiment: Inhibition of HDAC in human K562 cells assessed as increase in histone acetylation levels at 500 nM after 3 hrs by FACS analysis relative to SAHA
Type: cell-based
Settings: not given

histone acetylation relative to SAHA [%] | SMILES
108 | O=C(CCCCCCn1cc(-c2ccccc2)nn1)NO
48 | O=C(CCCCCn1cc(-c2ccccc2)nn1)NO
85 | COc1ccc(-c2cn(CCCCCCC(=O)NO)nn2)cc1
53 | O=C(CCCCCCn1cc(-c2ccc(Oc3ccccc3)cc2)nn1)NO

Molecular target: Histone deacetylase 1 (Homo sapiens, UniProt Q13547)
Experiment: Inhibition of recombinant human His-tagged HDAC1 (482 residues) expressed in baculovirus infected insect cells using Boc Lys(Ac)-AMC as substrate preincubated for 5 mins followed by substrate addition and measured after 30 mins by fluorescence assay
Settings: not given

Chain of Histone deacetylase 1 (Q13547 whole entry): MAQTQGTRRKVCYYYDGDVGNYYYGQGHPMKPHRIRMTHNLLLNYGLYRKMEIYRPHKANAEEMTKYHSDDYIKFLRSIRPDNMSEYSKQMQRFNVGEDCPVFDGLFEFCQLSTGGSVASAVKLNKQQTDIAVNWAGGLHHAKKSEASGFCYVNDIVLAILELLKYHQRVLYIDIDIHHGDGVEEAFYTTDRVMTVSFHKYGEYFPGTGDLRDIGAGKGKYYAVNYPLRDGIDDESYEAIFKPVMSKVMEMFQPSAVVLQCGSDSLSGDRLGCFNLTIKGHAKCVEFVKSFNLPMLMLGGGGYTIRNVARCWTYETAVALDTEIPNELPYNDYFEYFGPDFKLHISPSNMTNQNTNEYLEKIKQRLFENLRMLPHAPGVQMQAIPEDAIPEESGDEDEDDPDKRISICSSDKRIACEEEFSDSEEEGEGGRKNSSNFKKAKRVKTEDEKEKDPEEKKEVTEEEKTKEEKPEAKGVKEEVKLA

SMILES | IC50 [nM]
CC(C)CCc1c(OCCOc2cccc(/C=C/C(=O)NO)c2)ccc2c1OC(=O)CC2 | 66.8
CC(C)CCc1c(OCCOc2ccc(/C=C/C(=O)NO)cc2)ccc2c1OC(=O)CC2 | 83.2

Results, then the compound that gave them:

IC50 [nM] | SMILES
204 | CC(C)CCc1c(OCCCCOc2ccc(/C=C/C(=O)NO)cc2)ccc2c1OC(=O)CC2
64.7 | CC(C)CCc1c(OCCCOc2cccc(/C=C/C(=O)NO)c2)ccc2c1OC(=O)CC2

Molecular target: Histone deacetylase (HDAC1 and HDAC2) (Homo sapiens, UniProt Q13547+Q92769)
Experiment: not given
Type: cell-based
Settings: hela

IC50 [nM] | SMILES
220 | COc1cc(/C=C/C(=O)NO)ccc1OCCCCNC(=O)c1ccccc1O
240 | COc1cc(/C=C/C(=O)NO)ccc1OCCN(C)C(=O)c1ccccc1O
180 | COc1cc(/C=C/C(=O)NO)ccc1OCCCN(C)C(=O)c1ccccc1O
220 | COc1cc(/C=C/C(=O)NO)ccc1OCCCCN(C)C(=O)c1ccccc1O

Molecular target: Histone deacetylase
Experiment: not given
Type: cell-based, Homo sapiens
Settings: hela

IC50 [nM] | SMILES
120 | CCN(CC)CCN(Cc1ccc(C(=O)NO)cc1)C(=O)c1cc2c([nH]c3ccccc32)c(-c2ccc(OC)cc2)n1

Molecular target: T1, Protein deacetylase HDAC6 (Homo sapiens, UniProt Q9UBN7)
T1 sequence (Q9UBN7 whole entry): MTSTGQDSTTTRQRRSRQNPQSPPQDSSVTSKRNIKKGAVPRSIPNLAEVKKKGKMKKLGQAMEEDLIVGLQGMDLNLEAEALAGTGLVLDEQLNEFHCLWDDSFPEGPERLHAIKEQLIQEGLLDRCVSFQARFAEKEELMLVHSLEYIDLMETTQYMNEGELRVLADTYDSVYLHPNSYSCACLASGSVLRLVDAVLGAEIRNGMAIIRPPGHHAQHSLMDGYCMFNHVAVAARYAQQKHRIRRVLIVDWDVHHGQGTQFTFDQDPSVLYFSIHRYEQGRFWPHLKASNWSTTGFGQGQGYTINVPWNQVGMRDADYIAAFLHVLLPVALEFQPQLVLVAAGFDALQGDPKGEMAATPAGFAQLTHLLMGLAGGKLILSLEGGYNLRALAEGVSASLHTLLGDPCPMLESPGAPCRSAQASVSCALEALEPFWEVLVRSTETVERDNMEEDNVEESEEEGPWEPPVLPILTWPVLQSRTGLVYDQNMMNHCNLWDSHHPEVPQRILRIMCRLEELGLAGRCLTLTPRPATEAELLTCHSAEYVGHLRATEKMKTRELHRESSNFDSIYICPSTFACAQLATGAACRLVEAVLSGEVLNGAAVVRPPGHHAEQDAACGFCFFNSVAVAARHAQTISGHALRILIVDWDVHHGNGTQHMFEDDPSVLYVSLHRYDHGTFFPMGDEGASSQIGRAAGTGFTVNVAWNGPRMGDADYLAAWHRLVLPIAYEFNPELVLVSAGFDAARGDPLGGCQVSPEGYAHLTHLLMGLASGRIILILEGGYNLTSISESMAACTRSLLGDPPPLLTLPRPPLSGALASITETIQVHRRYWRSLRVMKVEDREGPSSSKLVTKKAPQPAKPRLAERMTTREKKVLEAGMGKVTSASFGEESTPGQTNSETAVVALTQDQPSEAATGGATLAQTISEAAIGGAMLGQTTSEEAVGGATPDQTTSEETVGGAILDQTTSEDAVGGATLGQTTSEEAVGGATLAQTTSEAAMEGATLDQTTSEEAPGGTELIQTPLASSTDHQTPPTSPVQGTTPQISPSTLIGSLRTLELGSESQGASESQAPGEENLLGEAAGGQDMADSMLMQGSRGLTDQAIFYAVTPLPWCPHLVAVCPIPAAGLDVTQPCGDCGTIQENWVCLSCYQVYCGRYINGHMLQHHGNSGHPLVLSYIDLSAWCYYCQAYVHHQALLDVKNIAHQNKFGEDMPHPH
Experiment: Inhibition of HDAC6 (unknown origin)
Settings: not given

IC50 [nM] | SMILES
360 | COc1cc(/C=C/C(=O)NO)ccc1OCCCCNC(=O)c1ccccc1O
430 | COc1cc(/C=C/C(=O)NO)ccc1OCCN(C)C(=O)c1ccccc1O
350 | COc1cc(/C=C/C(=O)NO)ccc1OCCCN(C)C(=O)c1ccccc1O
380 | COc1cc(/C=C/C(=O)NO)ccc1OCCCCN(C)C(=O)c1ccccc1O

Molecular target: Histone deacetylase 3 (Homo sapiens, UniProt O15379)
Experiment: Inhibition of HDAC3 (unknown origin)
Settings: not given

Chain of Histone deacetylase 3 (O15379 whole entry): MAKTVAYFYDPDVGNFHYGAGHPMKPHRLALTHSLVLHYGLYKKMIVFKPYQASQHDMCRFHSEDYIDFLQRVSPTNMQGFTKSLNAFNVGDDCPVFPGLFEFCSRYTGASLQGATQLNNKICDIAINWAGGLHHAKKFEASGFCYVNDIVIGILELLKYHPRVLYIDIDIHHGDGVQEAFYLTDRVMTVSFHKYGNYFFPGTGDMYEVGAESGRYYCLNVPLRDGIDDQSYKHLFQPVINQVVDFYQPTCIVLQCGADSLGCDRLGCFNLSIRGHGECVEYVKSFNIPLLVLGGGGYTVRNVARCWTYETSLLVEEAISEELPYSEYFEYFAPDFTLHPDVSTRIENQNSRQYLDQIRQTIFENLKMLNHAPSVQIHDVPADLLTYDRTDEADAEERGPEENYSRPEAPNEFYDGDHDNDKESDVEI

IC50 [nM] | SMILES
410 | COc1cc(/C=C/C(=O)NO)ccc1OCCCCNC(=O)c1ccccc1O
380 | COc1cc(/C=C/C(=O)NO)ccc1OCCN(C)C(=O)c1ccccc1O
290 | COc1cc(/C=C/C(=O)NO)ccc1OCCCN(C)C(=O)c1ccccc1O
260 | COc1cc(/C=C/C(=O)NO)ccc1OCCCCN(C)C(=O)c1ccccc1O

Tested on: A549
Experiment: cells
Type: functional, cell-based
Settings: Homo sapiens, A549, 72 h

IC50 [nM] | SMILES
1980 | O=C(CCCCCCn1cc(-c2ccccc2)nn1)NO
12500 | O=C(CCCCCn1cc(-c2ccccc2)nn1)NO
2840 | COc1ccc(-c2cn(CCCCCCC(=O)NO)nn2)cc1
4340 | O=C(CCCCCCn1cc(-c2ccc(Oc3ccccc3)cc2)nn1)NO

Tested on: HCT-116
Experiment: cells
Type: functional, cell-based
Settings: Homo sapiens, HCT-116, 72 h

IC50 [nM] | SMILES
1390 | O=C(CCCCCCn1cc(-c2ccccc2)nn1)NO
9370 | O=C(CCCCCn1cc(-c2ccccc2)nn1)NO
1780 | COc1ccc(-c2cn(CCCCCCC(=O)NO)nn2)cc1
3550 | O=C(CCCCCCn1cc(-c2ccc(Oc3ccccc3)cc2)nn1)NO

Molecular target: T1, Protein deacetylase HDAC6
Experiment: Inhibition of recombinant human His-tagged HDAC6 expressed in baculovirus infected insect cells using Boc Lys(Ac)-AMC as substrate preincubated for 5 mins followed by substrate addition and measured after 30 mins by fluorescence assay
Settings: not given

SMILES | IC50 [nM]
CC(C)CCc1c(OCCOc2cccc(/C=C/C(=O)NO)c2)ccc2c1OC(=O)CC2 | 6.31
CC(C)CCc1c(OCCOc2ccc(/C=C/C(=O)NO)cc2)ccc2c1OC(=O)CC2 | 55.6

Results, then the compound that gave them:

IC50 [nM] | SMILES
82.6 | CC(C)CCc1c(OCCCCOc2ccc(/C=C/C(=O)NO)cc2)ccc2c1OC(=O)CC2
12.1 | CC(C)CCc1c(OCCCOc2cccc(/C=C/C(=O)NO)c2)ccc2c1OC(=O)CC2

Tested on: K562
Experiment: cells
Type: functional, cell-based
Settings: Homo sapiens, K562, 72 h

IC50 [nM] | SMILES
1210 | O=C(CCCCCCn1cc(-c2ccccc2)nn1)NO
8350 | O=C(CCCCCn1cc(-c2ccccc2)nn1)NO
1530 | COc1ccc(-c2cn(CCCCCCC(=O)NO)nn2)cc1
3300 | O=C(CCCCCCn1cc(-c2ccc(Oc3ccccc3)cc2)nn1)NO
